In US11401270B2, “Alcoxyamino derivatives for treating pain and pain related conditions” (ESTEVE PHARMACEUTICALS, S.A., priority 2017, dated 2022):
Where two headings read alike, the source gives them in different places.

Key:
[1] = molecular target: Human α2δ-1 subunit of Cav2.2 calcium channel (Homo sapiens (Human), UniProt P54289); assay: Binding Assay to Human α2δ-1 Subunit of Cav2.2 Calcium Channel; conditions: human α2δ-1 enriched membranes, 15 nM [3H]-Gabapentin, read-out: Ki(nM) alpha2delta Hum
Human α2δ-1 subunit of Cav2.2 calcium channel, sequence (P54289 25-1103): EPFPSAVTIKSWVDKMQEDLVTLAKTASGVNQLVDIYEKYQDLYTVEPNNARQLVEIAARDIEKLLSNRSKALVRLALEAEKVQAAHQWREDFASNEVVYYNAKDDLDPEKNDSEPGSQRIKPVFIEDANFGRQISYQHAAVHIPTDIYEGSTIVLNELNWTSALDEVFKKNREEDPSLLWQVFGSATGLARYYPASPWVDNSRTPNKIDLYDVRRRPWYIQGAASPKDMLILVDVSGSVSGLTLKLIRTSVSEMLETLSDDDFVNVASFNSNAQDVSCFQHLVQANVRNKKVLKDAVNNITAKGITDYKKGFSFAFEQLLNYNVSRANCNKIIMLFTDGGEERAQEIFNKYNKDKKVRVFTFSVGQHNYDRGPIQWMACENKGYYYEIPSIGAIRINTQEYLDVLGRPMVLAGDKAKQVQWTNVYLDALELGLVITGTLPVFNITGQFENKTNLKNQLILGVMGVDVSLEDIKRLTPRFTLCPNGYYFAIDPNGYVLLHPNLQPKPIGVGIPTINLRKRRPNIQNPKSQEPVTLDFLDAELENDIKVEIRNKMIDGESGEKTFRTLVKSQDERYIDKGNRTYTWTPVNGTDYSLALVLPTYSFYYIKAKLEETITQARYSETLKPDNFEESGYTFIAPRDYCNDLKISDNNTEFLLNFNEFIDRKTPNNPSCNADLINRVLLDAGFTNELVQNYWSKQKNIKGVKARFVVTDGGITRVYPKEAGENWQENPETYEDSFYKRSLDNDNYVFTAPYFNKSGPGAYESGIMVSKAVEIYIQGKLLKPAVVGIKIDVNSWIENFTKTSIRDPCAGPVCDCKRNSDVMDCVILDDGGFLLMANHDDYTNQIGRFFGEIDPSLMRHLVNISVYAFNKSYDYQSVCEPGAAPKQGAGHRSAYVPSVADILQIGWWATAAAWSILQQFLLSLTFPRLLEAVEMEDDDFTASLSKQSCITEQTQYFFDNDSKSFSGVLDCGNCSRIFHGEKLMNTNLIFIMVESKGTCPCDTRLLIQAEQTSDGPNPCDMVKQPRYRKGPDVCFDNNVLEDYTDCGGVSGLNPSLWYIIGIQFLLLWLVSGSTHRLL
Method in brief: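 Radioligand filtration binding at the α2δ-1 subunit, test compound at five concentrations; nonspecific binding defined with 10 μM pregabalin. Incubated 60 min at 27 °C, stopped by GF/C filtration (0.5% PEI presoaked) with ice-cold 50 mM Tris-HCl pH 7.4 washes; bound radioactivity counted by scintillation.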

[2] = molecular target: Human norepinephrine transporter (NET) (Homo sapiens (Human), UniProt P23975); assay: Binding Assay to Human Norepinephrine Transporter (NET); conditions: Table 2, dual compounds; human NET enriched membranes, 5 nM [3H]-Nisoxetin; read-out: Ki(nM) NET Hum
Human norepinephrine transporter (NET), sequence (P23975 whole entry): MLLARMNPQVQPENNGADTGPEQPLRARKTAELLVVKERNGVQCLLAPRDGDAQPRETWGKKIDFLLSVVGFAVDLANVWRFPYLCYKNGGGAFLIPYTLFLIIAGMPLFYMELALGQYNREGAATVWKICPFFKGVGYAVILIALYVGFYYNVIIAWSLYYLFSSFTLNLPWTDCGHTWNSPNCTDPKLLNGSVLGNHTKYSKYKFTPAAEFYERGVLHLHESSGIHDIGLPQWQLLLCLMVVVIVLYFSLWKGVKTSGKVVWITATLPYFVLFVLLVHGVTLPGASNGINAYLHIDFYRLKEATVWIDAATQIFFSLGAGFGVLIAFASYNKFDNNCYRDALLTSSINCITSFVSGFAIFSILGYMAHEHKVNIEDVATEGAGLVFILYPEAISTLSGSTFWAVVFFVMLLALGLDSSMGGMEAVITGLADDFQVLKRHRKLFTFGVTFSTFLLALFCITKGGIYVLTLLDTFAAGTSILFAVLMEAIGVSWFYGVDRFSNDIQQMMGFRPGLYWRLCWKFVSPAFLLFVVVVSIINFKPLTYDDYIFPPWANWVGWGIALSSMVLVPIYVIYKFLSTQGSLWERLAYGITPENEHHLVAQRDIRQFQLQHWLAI
Method in brief: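 hNET-enriched membranes (5 μg) incubated with 5 nM [3H]-nisoxetine in Tris pH 7.4 containing 120 mM NaCl and 5 mM KCl, with compound at five concentrations, 60 min at 4 °C. Non-specific binding with 10 μM desipramine; filtration and scintillation counting.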

Row | Ki ([1]; Table 1) | Ki ([1]; Table 2, dual compounds) | Ki [2] | SMILES
1 | 100 to 500 nM | 100 to 500 nM | 500 to 1000 nM | CNCCC(Oc1ccc(CN2CCN(C)c3nc(C)ccc3C2=O)cc1)c1cccs1 (stereo not drawn) [Example 100, 1,8-Dimethyl-4-(4-(3-(methylamino)-1-(thiophen-2-yl)propoxy)benzyl)~ 1,2,3,4-tetrahydro-5H-pyrido[2,3-e][1,4]diazepin-5-one]
2 | 100 to 500 nM | 100 to 500 nM | 100 to 500 nM | CNCC[C@H](Oc1ccc(CN2CCN(C)c3nc(C)ccc3C2=O)cc1)c1cccs1 [Example 91, (S)-1,8-dimethyl-4-(4-(3-(methylamino)-1-(thiophen-2-yl)propoxy)benzyl)-1,2,3,4-tetrahydro-5H-pyrido[2,3-e][1,4]diazepin-5-one]
3 | 100 to 500 nM | 100 to 500 nM | 100 to 500 nM | CNCC[C@H](Oc1cccc(N2CCN(C(C)C)CCC2=O)c1)c1ccsc1 [Example 77, (S)-1-isopropyl-4-(3-(3-(methylamino)-1-(thiophen-3-yl)propoxy)phenyl)-1,4-diazepan-5-one]
4 | 500 to 3000 nM | 500 to 3000 nM | 100 to 500 nM | CCN1CCC(=O)N(c2cccc(OC(CCNC)c3cccs3)c2)CC1 (stereo not drawn) [Example 58, 1-Ethyl-4-(3-(3-(methylamino)-1-(thiophen-2-yl)propoxy)phenyl)-1,4-diazepan-5-one]
5 | 100 to 500 nM | 100 to 500 nM | 100 to 500 nM | CNCC[C@H](Oc1ccc(CN2CCN(C)c3nc(OC)ccc3C2=O)cc1)c1cccs1 [Example 94, (S)-8-methoxy-1-methyl-4-(4-(3-(methylamino)-1-(thiophen-2-yl)propoxy)benzyl)-1,2,3,4-tetrahydro-5H-pyrido[2,3-e][1,4]diazepin-5-one]
6 | 500 to 3000 nM | 500 to 3000 nM | 500 to 1000 nM | CNCCC(Oc1cccc(N2CCN(C(C)C)CCC2=O)c1)c1cccs1 (stereo not drawn) [Example 60, 1-Isopropyl-4-(3-(3-(methylamino)-1-(thiophen-2-yl)propoxy)phenyl)-1,4-diazepan-5-one]
7 | 500 to 3000 nM | 500 to 3000 nM | < 100 nM | CNCC[C@H](Oc1ccc(CN2CCCn3nccc3C2=O)c(F)c1)c1ccccc1 [Example 145, (S)-5-(2-fluoro-4-(3-(methylamino)-1-phenylpropoxy)benzyl)-5,6,7,8-tetrahydro-4H-pyrazolo[1,5-a][1,4]diazepin-4-one]
8 | < 100 nM | < 100 nM | < 100 nM | CNCCC(Oc1cc(F)cc(N2CCN(C)c3ncccc3C2=O)c1)c1cccc(F)c1 (stereo not drawn) [Example 121, 4-(3-Fluoro-5-(1-(3-fluorophenyl)-3-(methylamino)propoxy)phenyl)-1-methyl-1,2,3,4-tetrahydro-5H-pyrido[2,3-e][1,4]diazepin-5-one]
